Source: ChEMBL document CHEMBL3046472, “QSAR modeling of photosynthesis-inhibiting nostoclide derivatives” (Pest Manag Sci, 2010)
Calls of active or inactive are those of the source. The rule behind the calls is not given here.

Each compound was assayed against Cytochrome b6-f complex subunit 4 (Spinacia oleracea) (UniProt P00166) (assay: Inhibition of photosynthetic electron transport protein complex in Spinacia oleracea (spinach) leaf thylakoid membranes up to 100 uM measured at 30 seconds intervals for 10 min).
Sequence of Cytochrome b6-f complex subunit 4 (Spinacia oleracea) (P00166 whole entry, looked up, one chain of several): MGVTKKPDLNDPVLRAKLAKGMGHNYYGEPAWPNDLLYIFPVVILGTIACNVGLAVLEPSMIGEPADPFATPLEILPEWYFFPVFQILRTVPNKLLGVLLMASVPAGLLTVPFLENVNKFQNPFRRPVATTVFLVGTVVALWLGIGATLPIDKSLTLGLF

SMILES | inhibition
CN(C)c1ccc(/C=C2/C=C(Cc3ccccc3)C(=O)O2)cc1 | inactive
N#Cc1cccc(/C=C2/C=C(Cc3ccccc3)C(=O)O2)c1 | inactive
O=C1O/C(=C\c2ccc(-c3ccccc3)cc2)C=C1Cc1ccccc1 | inactive
O=C1O/C(=C\c2ccc(Br)cc2)C=C1Cc1ccccc1 | inactive
O=C1O/C(=C\c2ccccc2O)C=C1Cc1ccccc1 | inactive
N#Cc1ccc(/C=C2/C=C(Cc3ccccc3)C(=O)O2)cc1 | inactive
CN(C)c1ccc(/C=C2/C=C(Cc3ccccc3)C(=O)O2)c(Cl)c1 | inactive
O=C1O/C(=C\c2ccc3c(c2)OCO3)C=C1Cc1ccccc1 | inactive
O=C1O/C(=C\c2ccc(Cl)cc2)C=C1Cc1ccccc1 | inactive

Further lines, results first:

inhibition | SMILES
inactive | O=C1O/C(=C\c2ccc(O)cc2)C=C1Cc1ccccc1
inactive | O=C1O/C(=C\c2cccc(O)c2)C=C1Cc1ccccc1
inactive | Cc1ccc(/C=C2/C=C(Cc3ccccc3)C(=O)O2)cc1
inactive | COc1ccc(/C=C2/C=C(Cc3ccccc3)C(=O)O2)cc1O
